Source: patent publication US20250332173A1, “COMPOUNDS AND METHODS FOR MODULATING NUCLEIC ACID SPLICING” (REMIX THERAPEUTICS INC., priority 2021, published 2025)
Read-outs that look alike come from different tables or passages of the source.

Columns and labels:
SMN2 mRNA = assay: RT-qPCR splicing assay, SMN2 canonical junction (CJ) mRNA; format: cell-based, human; details: Homo sapiens; Table 5 panel; canonical junction qPCR; compound concentration having 50% response in CJ decrease; read-out: SMN2 IC50 (decrease in CJ mRNA levels)
In short: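 Canonical exon-exon junction transcript levels measured by one-step RT-qPCR of cell lysates, normalized to a housekeeping gene (GAPDH, GUSB or PPIA). Cells used were A673 or K562, exposed for 24 h to compound in 11-point, 3-fold series from 10 uM, with final DMSO at or below 0.25%.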

MYB = assay: HiBiT protein abundance assay, MYB HiBiT K562 cell line; format: cell-based, human; details: HiBiT K562 cell line, 24 hours, top dose 10 μM; read-out: Effect on protein abundance, MYB (IC50 category)
In short: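 Tagged-protein abundance measured by split-NanoBiT luminescence after lysis, following 24 h compound exposure (37° C; 10 μM top, 3-fold, 10 points; DMSO ≤0.25%) of HiBiT knock-in K562 cells. Percent response vs DMSO and unmodified-cell controls; 4-parameter logistic interpolation at 50% gave IC50.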

[1] = test system: K562 (human chronic myelogenous leukemia) cells; assay: Cell Titer Glo 2.0 cell viability assay; format: cell-based; details: K562 cells, 72 hours, Cell Titer Glo 2.0, read-out: K562 GI50

SMILES | IC50 (SMN2 mRNA) | IC50 (MYB) | GI50 ([1]; Homo sapiens, K562, 72 h) | GI50 [1]
Cn1cc2cc(-c3cc(F)c4c(=O)n(C5CCNCC5)cnc4c3)cc(F)c2n1 [Compound 314] | 100 to 1000 nM | 1000 to 10000 nM | 1000 to 10000 nM | –
Cc1cc(-c2ccc3c(=O)n(C4CCN(C)CC4)cnc3c2)cc2cn(C)nc12 [Compound 156] | 100 to 1000 nM | 1000 to 10000 nM | – | –
Cc1nc2c(F)cc(-c3ccc4c(=O)n(C5CCN(C)CC5)cnc4c3)cc2s1 [Compound 301] | 1000 to 10000 nM | 1000 to 10000 nM | 1000 to 10000 nM | –
Cn1cc2cc(-n3cnc4cc(N5CCNCC5)ccc4c3=O)ccc2n1 [Compound 153] | 1000 to 10000 nM | > 10000 nM | – | –
Cn1cc2cc(-c3cc(F)c4c(=O)n(C5CCNCC5)cnc4c3)c(F)cc2n1 [Compound 315] | < 100 nM | 100 to 1000 nM | 1000 to 10000 nM | –
Cc1cn2nc(-c3ccc4c(=O)n(C5CCCNCC5)ncc4c3)cc(C)c2n1 (stereo not drawn) [Compound 283] | < 100 nM | 100 to 1000 nM | 100 to 1000 nM | –
CN1CCN(c2ccc3c(=O)n(-c4ccc5nn(C)cc5c4)cnc3c2)CC1 [Compound 152] | > 10000 nM | > 10000 nM | 1000 to 10000 nM | –
Cc1cc(-c2cnc3c(=O)n(C4CCNCC4)cnc3c2)cc2cn(C)nc12 [Compound 311] | 100 to 1000 nM | 1000 to 10000 nM | 1000 to 10000 nM | –
Cc1cn2nc(-c3cc(F)c4c(=O)n(C5CCNCC5)cnc4c3)cc2c(C)n1 [Compound 318] | < 100 nM | < 100 nM | 100 to 1000 nM | –
Cc1cn2cc(-c3ccc4c(=O)n(C5CCNCC5)cnc4c3)cc(Cl)c2n1 [Compound 291] | < 100 nM | 100 to 1000 nM | < 100 nM | –
Cc1cc(-c2ccc3c(=O)n(C4CC(C)(C)NC(C)(C)C4)cnc3c2)cc2cn(C)nc12 [Compound 157] | 1000 to 10000 nM | 1000 to 10000 nM | – | –
Cc1cn2nc(-c3cc(F)c4c(=O)n(C5CCNC6(CC6)C5)ncc4c3)cc(C)c2n1 (stereo not drawn) [Compound 312] | < 100 nM | < 100 nM | 100 to 1000 nM | –
Cc1cn2cc(-c3ccc4c(=O)n([C@@H]5CCN[C@@H](C)C5)cnc4c3)cc(F)c2n1 [Compound 293] | < 100 nM | 100 to 1000 nM | 100 to 1000 nM | –
CCN1CCC(n2ncc3cc(-c4cc(C)c5nc(C)cn5n4)ccc3c2=O)CC1 [Compound 266] | < 100 nM | 100 to 1000 nM | 100 to 1000 nM | –
Cc1cn2cc(-c3ccc4c(=O)n(C5CCN(C)CC5)cnc4c3)nc2c(C)n1 [Compound 302] | 100 to 1000 nM | 1000 to 10000 nM | 1000 to 10000 nM | –
Cc1cn2nc(-c3ccc4c(=O)n(C5CCNCC5)cnc4c3)nc2c(C)n1 [Compound 287, 7-{6,8-dimethyl-[1,2,4]triazolo[1,5-a]pyrazin-2-yl}-3-(piperidin-4-yl)quinazolin-4-one] | < 100 nM | 100 to 1000 nM | 100 to 1000 nM | –
Cc1cn2nc(-c3ccc4c(=O)n(C5CCNCC5)cnc4c3)cc2c(C)n1 [Compound 298] | < 100 nM | 100 to 1000 nM | 1000 to 10000 nM | –
O=c1c2ccc(-c3cn[nH]c3)cc2ncn1C1CCNCC1 [Compound 284] | 1000 to 10000 nM | 1000 to 10000 nM | > 10000 nM | –
Cc1cn2nc(-c3ccc4c(c3)CCN(C3CCNC(C)(C)C3)C4=O)cc(C)c2n1 (stereo not drawn) [Compound 267] | < 100 nM | 100 to 1000 nM | 1000 to 10000 nM | –
Cc1cn2cc(-c3ccc4c(=O)n(C5CCN(C)CC5)cnc4c3)ncc2n1 [Compound 308] | 100 to 1000 nM | 1000 to 10000 nM | 1000 to 10000 nM | –
Cc1cn2cc(-c3cc(F)c4c(=O)n(C5CCNCC5)cnc4c3)cc(C)c2n1 [Compound 317] | < 100 nM | < 100 nM | 100 to 1000 nM | –
CN1CC=C(c2ccc3c(=O)n(-c4ccc5nn(C)cc5c4)cnc3c2)CC1 [Compound 159] | > 10000 nM | > 10000 nM | – | –
Cc1cn2nc(-c3ccc4c(=O)n([C@H]5CCN(C)[C@H](C)C5)ncc4c3)cc(C)c2n1 [Compound 278] | < 100 nM | < 100 nM | 100 to 1000 nM | –
Cc1cn2cc(-c3ccc4c(=O)n(C5CCNCC5)cnc4c3)nc2c(C)n1 [Compound 286] | 100 to 1000 nM | 100 to 1000 nM | 100 to 1000 nM | –
Cc1cn2nc(-c3ccc4c(c3)CCN(C3CCNC3)C4=O)cc(C)c2n1 (stereo not drawn) [Compound 269] | 1000 to 10000 nM | 1000 to 10000 nM | > 10000 nM | –
Cc1cn2cc(-c3ccc4c(=O)n(C5CCNCC5)ccc4c3)cc(F)c2n1 [Compound 276] | < 100 nM | < 100 nM | < 100 nM | –
Cc1cn2cc(-c3ccc4c(=O)n(C5CCN[C@@H](C)C5)cnc4c3)cc(F)c2n1 (stereo partly drawn) [Compound 294] | < 100 nM | 100 to 1000 nM | 100 to 1000 nM | –
Cc1cn2nc(-c3ccc4c(=O)n(C5CCN(C)CC5)cnc4c3F)cc(C)c2n1 [Compound 290] | 100 to 1000 nM | 100 to 1000 nM | – | –
CN1CCC(n2cnc3cc(-c4cn[nH]c4)ccc3c2=O)CC1 [Compound 299] | > 10000 nM | > 10000 nM | > 10000 nM | –
Cn1cc2cc(-n3cnc4cc(C5=CCNCC5)ccc4c3=O)ccc2n1 [Compound 158] | > 10000 nM | 1000 to 10000 nM | – | –

Further lines, results first:

IC50 (SMN2 mRNA) | IC50 (MYB) | GI50 ([1]; Homo sapiens, K562, 72 h) | GI50 [1] | SMILES
> 10000 nM | > 10000 nM | > 10000 nM | – | Cc1cn2cc(-c3cc(F)c4c(=O)n([C@H]5CNCC[C@@H]5O)cnc4c3)cc(F)c2n1 [Compound 348, 5-fluoro-7-{8-fluoro-2-methylimidazo[1,2-a]pyridin-6-yl}-3-[(3S,4S)-4-hydroxypiperidin-3-yl]quinazolin-4-one]
< 100 nM | 100 to 1000 nM | < 100 nM | – | Cc1cn2cc(-c3cc(F)c4c(=O)n(C5=CCNCC5)cnc4c3)cc(F)c2n1 [Compound 342]
< 100 nM | > 10000 nM | > 10000 nM | – | Cc1cn2nc(-c3cc(N(C)C)c4c(=O)n(C5CCNC6(CC6)C5)cnc4c3)cc(C)c2n1 (stereo not drawn) [Compound 345]
> 10000 nM | > 10000 nM | > 10000 nM | – | Cc1cn2cc(-c3cc(F)c4c(=O)n(C5CNCCC5=O)cnc4c3)cc(F)c2n1 (stereo not drawn) [Compound 352, 5-fluoro-7-{8-fluoro-2-methylimidazo[1,2-a]pyridin-6-yl}-3-(4-oxopiperidin-3-yl)quinazolin-4-one]
< 100 nM | < 100 nM | – | 100 to 1000 nM | Cc1cn2nc(-c3ccc4c(=O)n([C@@H]5CCNC6(CC6)C5)cnc4c3)cc(C)c2n1 [Compound 350, 3-[(7R)-4-azaspiro[2.5]octan-7-yl]-7-{2,8-dimethylimidazo[1,2-b]pyridazin-6-yl}quinazolin-4-one]
1000 to 10000 nM | 1000 to 10000 nM | 1000 to 10000 nM | – | CNc1cc(-c2cc(C#N)c3nc(C)cn3c2)cc2ncn(C3CCNCC3)c(=O)c12 [Compound 363, 2-methyl-6-[5-(methylamino)-4-oxo-3-(piperidin-4-yl)quinazolin-7-yl]imidazo[1,2-a]pyridine-8-carbonitrile]
< 100 nM | 100 to 1000 nM | 1000 to 10000 nM | – | Cc1cn2nc(-c3ccc4c(=O)n([C@H]5CCNC6(CC6)C5)cnc4c3)cc(C)c2n1 [Compound 349, 3-[(7S)-4-azaspiro[2.5]octan-7-yl]-7-{2,8-dimethylimidazo[1,2-b]pyridazin-6-yl}quinazolin-4-one]
< 100 nM | < 100 nM | 100 to 1000 nM | – | Cc1cn2cc(-c3cc(F)c4c(=O)n([C@H]5CCN[C@@H](C)C5)cnc4c3)cc(F)c2n1 (relative stereo) [Compound 343, cis-5-fluoro-7-(8-fluoro-2-methylimidazo[1,2-a]pyridin-6-yl)-3-(2-methylpiperidin-4-yl)quinazolin-4(3H)-one]
1000 to 10000 nM | 1000 to 10000 nM | 1000 to 10000 nM | – | Cc1ncc(-c2ccc3c(=O)n(C4CCNCC4)cnc3c2)cn1 [Compound 354, 7-(2-methylpyrimidin-5-yl)-3-(piperidin-4-yl)quinazolin-4(3H)-one]
< 100 nM | < 100 nM | 100 to 1000 nM | – | Cc1cn2nc(-c3cc(C)c4c(=O)n(C5CCNCC5)cnc4c3)cc(C)c2n1 [Compound 355]
1000 to 10000 nM | > 10000 nM | > 10000 nM | – | COc1cc(-c2cc(F)c3c(=O)n(C4CCNCC4)cnc3c2)cnn1 [Compound 320]
< 100 nM | < 100 nM | 100 to 1000 nM | – | Cc1cn2cc(-c3cc(F)c4c(=O)n(N5CCNCC5)cnc4c3)cc(F)c2n1 [Compound 340, 5-fluoro-7-{8-fluoro-2-methylimidazo[1,2-a]pyridin-6-yl}-3-(piperazin-1-yl)quinazolin-4-one]
< 100 nM | 100 to 1000 nM | 100 to 1000 nM | – | Cc1cn2cc(-c3cc(F)c4c(=O)n([C@H]5CCNC[C@H]5F)cnc4c3)cc(F)c2n1 [Compound 338]
< 100 nM | < 100 nM | < 100 nM | – | Cc1cn2nc(-c3cc(F)c4c(=O)n(C5CCNCC5)ccc4c3)cc(C)c2n1 [Compound 322]
< 100 nM | 100 to 1000 nM | 100 to 1000 nM | – | Cc1cn2cc(-c3cc(F)c4c(=O)n(C5CCCNCC5)cnc4c3)cc(F)c2n1 (stereo not drawn) [Compound 353, 3-(azepan-4-yl)-5-fluoro-7-{8-fluoro-2-methylimidazo[1,2-a]pyridin-6-yl}quinazolin-4-one]
